Data set [1] deals with wild-type mice. As to the kind of experiment: Open field exploration and pre-pulse inhibition assays, wild-type mice injected with 4EPS (Example 1). It counts as in vivo, mouse. To be noted: 30 mg/kg 4EPS potassium salt i.p. daily from 3 to 6 weeks of age vs saline, n=10/group. As for the experimental part: To measure effects of 4EPS on wild-type mice, the wild-type mice were injected intraperitoneally (i.p.) with saline or 30 mg/kg 4EPS potassium salt daily from 3 to 6 weeks of age. Anxiety-like behavior based on center duration (See FIG. 1B) and locomotor behavior (See […]) were measured in the open field exploration assay. n=10/group. Furthermore, the potentiated startle reflex was measured in the pre-pulse inhibition (PPI) assay, and measurements were taken of startle (Vmax) (FIG. 1C) and PPI % (FIG. 1D). n=10/group.

Data set [2] deals with Wildtype mice. The experiment in a line: Light dark box, mice injected with 4EPS. It counts as in vivo, mouse. The conditions noted are these: 30 mg/kg 4EPS potassium salt i.p. daily, 3 to 6 weeks of age, vs saline. As for the experimental part: (§1) Wildtype mice were injected intraperitoneally (i.p.) with saline or 30 mg/kg 4EPS potassium salt daily from 3 to 6 weeks of age and tested for anxiety in the elevated plus maze (FIG. 4A-C), light dark box (FIG. 4D-F), and open field arena (FIG. 4G-I) assays.

For data set [3], the system named is Wildtype mice. As to the kind of experiment: Open field arena, mice injected with 4EPS. The conditions noted are these: 30 mg/kg 4EPS potassium salt i.p. daily, 3 to 6 weeks of age, vs saline. It counts as in vivo, mouse. As to the method: as §1
The test system of data set [4] is Wildtype mice. As to the kind of experiment: Elevated plus maze, mice injected with 4EPS. The conditions noted are these: 30 mg/kg 4EPS potassium salt i.p. daily, 3 to 6 weeks of age, vs saline. The data set is classed as in vivo, mouse. As for the experimental part:
as §1

Data set [5] addresses Sult1A1 (sulfotransferase family 1A member 1) (Homo sapiens, UniProt P50225). As to the kind of experiment: R&D SYSTEMS sulfotransferase assay, Sult1A1 modification of 4EP to 4EPS. It counts as biochemical. The conditions noted are these: in vitro, FIG. 11C. As to the method:
Using R&D SYSTEMS Universal Sulfotransferase Assay Kit™, sulfation of 4-ethylphenol (4EP) or para-cresol (PC) was determined colorimetrically (FIG. 11A). Samples from the assay were pooled and analyzed by liquid chromotography mass spectrometry (LCMS) for the confirmation that 4EPS and PCS are present (FIG. 11B).
An R&D SYSTEMS assay was used to determine whether quercetin and curcumin can inhibit Sult1A1 (sulfotransferase family 1A member 1, an enzyme that catalyzes sulfate conjugation) modification of 4EP to 4EPS (FIG. 11C). […] Accordingly, it is contemplated that quercetin and curcumin in accordance with some embodiments herein can inhibit the production of 4EPS in a subject in need thereof.

A short description of data set [6]: 4EP to 4EPS conversion by cytosolic fractions from tissues of colonized mice. To be noted: colon and liver cytosolic fractions of colonized mice, FIG. 11E. It counts as in vitro ADME, mouse. As for the experimental part:
4EP to 4EPS conversion was measured by cytosolic fractions from various tissues of colonized mice (FIG. 11E).

Chain of Sult1A1 (sulfotransferase family 1A member 1) (P50225 whole entry, species assumed): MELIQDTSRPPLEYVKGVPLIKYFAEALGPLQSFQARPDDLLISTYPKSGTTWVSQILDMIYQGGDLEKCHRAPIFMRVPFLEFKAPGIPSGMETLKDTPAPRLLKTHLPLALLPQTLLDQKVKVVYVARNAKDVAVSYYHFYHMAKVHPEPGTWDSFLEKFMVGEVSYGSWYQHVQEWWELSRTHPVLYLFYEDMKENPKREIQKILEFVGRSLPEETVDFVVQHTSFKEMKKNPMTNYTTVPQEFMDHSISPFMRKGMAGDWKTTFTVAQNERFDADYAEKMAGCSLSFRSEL

Take `CCc1ccc(OS(=O)(=O)[O-])cc1.[K+]` [4EPS, 4-ethylphenyl sulfate]: in data set [1], the “anxiety behaviors (open field center duration, startle, PPI)” value is listed as “significantly increased anxiety behaviors”. In addition, in data set [2], the “frequency in the light (light dark box)” value is “decreased” and the “total duration in the light (light dark box)” value is reported as “decreased”. Also, in data set [3], the “distance moved (open field arena)” value is listed as “comparable to saline-injected mice” and the “total duration in center (open field arena)” value is listed as “decreased”. Further, in data set [4], the “duration in the open (elevated plus maze)” value is reported as “decreased” and the “total terminus duration (elevated plus maze)” value is listed as “decreased”.
As for `COc1cc(/C=C/C(=O)CC(=O)/C=C/c2ccc(O)c(OC)c2)ccc1O` [curcumin], in data set [5], the “inhibition of sulfation of 4EP” value is on record as “inhibit”.
As to `CCc1ccc(O)cc1` [4EP, 4-ethylphenol], in data set [6], the “conversion of 4EP to 4EPS” value was “Substantial conversion”.
Regarding `O=c1c(O)c(-c2ccc(O)c(O)c2)oc2cc(O)cc(O)c12` [quercetin], the “inhibition of sulfation of 4EP” value in data set [5] was “inhibit”.
